IC50 data for twelve compounds are collected here from ChEMBL document CHEMBL1123720 (J Med Chem, 1987).

Each structure is given as a SMILES string. A value given as a limit tells only on which side of the number the result lay.

The species entered for the first test is Rattus norvegicus. Description: Dose-dependent inhibition of calcium contraction in depolarized rat aortic strips. The format is functional, organism-based. The following applies: Aorta.
On to `CCOC(=O)[C@H]1[C@H]2/C(=C(\O)OCC)C(C)=N[C@]1(C)Sc1ccc([N+](=O)[O-])cc12`, for which the IC50 was 3.4 µM.

As to `CCOC(=O)[C@@H]1[C@H]2/C(=C(\O)OCC)C(C)=N[C@]1(C)Sc1c2cccc1[N+](=O)[O-]`, the IC50 was found to be 3.7 µM.

Turning to `CCOC(=O)C1=C(C)NC(C)=C(C(=O)OC)C1c1cccc([N+](=O)[O-])c1` (configuration not stated) [NITRENDIPINE], the IC50 worked out at 0.0031 µM.

Turning to `CCOC(=O)C1=C(C)N=C(C)/C(=C(/O)OCC)C1c1cccc([N+](=O)[O-])c1SC` (configuration not stated), the IC50 was found to be 0.0058 µM.

Regarding `COC(=O)C1=C(C)NC(C)=C(C(=O)OC)C1c1ccccc1[N+](=O)[O-]` [NIFEDIPINE], the IC50 was determined as 0.0088 µM.

In the case of `CCOC(=O)[C@@H]1[C@H]2/C(=C(\O)OCC)C(C)=N[C@]1(C)Sc1ccccc12`, the IC50 is 1.2 µM.

Regarding `CCOC(=O)C1=C(C)N=C(C)/C(=C(/O)OCC)C1c1cc([N+](=O)[O-])ccc1SC` (configuration not stated), the IC50 turned out to be 0.13 µM.

Regarding `CCOC(=O)[C@@H]1[C@H]2/C(=C(\O)OCC)C(C)=N[C@]1(C)Sc1ccc([N+](=O)[O-])cc12`, the IC50 is 0.031 µM.

`CCOC(=O)[C@H]1[C@H]2/C(=C(\O)OCC)C(C)=N[C@]1(C)Sc1ccccc12`: the IC50 amounted to 22 µM.

Take `CCOC(=O)[C@H]1[C@H]2/C(=C(\O)OCC)C(C)=N[C@]1(C)Sc1c2cccc1[N+](=O)[O-]`: the IC50 was determined as 23 µM.

Turning to `CCOC(=O)[C@@H]1[C@H]2/C(=C(\O)OCC)C(C)=N[C@]1(C)Sc1cc([N+](=O)[O-])ccc12`, the IC50 was 14 µM.

A further test is filed under the species Rattus norvegicus. Description: Dose-dependent inhibition of calcium contraction in depolarized rat aortic strips. In kind it is functional, organism-based. The following applies: Aorta.
Regarding `CCOC(=O)[C@H]1[C@H]2/C(=C(\O)OCC)C(C)=N[C@]1(C)Sc1cc([N+](=O)[O-])ccc12`, the IC50 was greater than 100 µM.

The term IC50 denotes the concentration needed to halve the response being measured.
